According to patent US7786297B2, “Purified form of tanaproget” (Wyeth LLC, priority 2005, dated 2010):

Assay: storage stability of purified tanaproget Form I (polymorph conversion)
Assay type: physicochemical
Conditions: storage of purified tanaproget Form I alone or in combination with other agents/excipients

Cn1c(C#N)ccc1-c1ccc2c(c1)C(C)(C)OC(=S)N2 [purified tanaproget Form I, 5-(4,4-dimethyl-2-thioxo-1,4-dihydro-2H-3,1-benzoxazin-6-yl)-1-methyl-1H-pyrrole-2-carbonitrile]
stability / conversion to another polymorph during storage: stable and less likely to convert to another polymorph during storage
